Data as given in paper PMC9007951, “Systematically evaluating DOTATATE and FDG as PET immuno-imaging tracers of cardiovascular inflammation” (Scientific Reports, 2022).
Where two headings read alike, the source gives them in different places.

Assay: Timed organ biodistribution of [^64Cu]Cu-DOTATATE by ex vivo gamma counting
Assay type: in vivo, mice
Details: mouse, intravenous, 1.85 MBq, total radioactivity, median (IQR); for tissue uptake at 1 min: 1 min after injection; for tissue uptake at 5 min: 5 min after injection; for tissue uptake at 0.25 h: 15 min after injection; for tissue uptake at 0.5 h: 30 min after injection; for tissue uptake at 2 h: 120 min after injection; for tissue uptake at 1 h: 60 min after injection
Procedure: Wild-type and atherosclerotic animals were injected with approximately 1.85 MBq of [^64Cu]Cu-DOTATATE and euthanized at either 1, 5, 15, 30, 60 or 120 min after injection (Supplementary Fig. S1A) to evaluate the tracer’s biodistribution. After euthanasia, an insulin syringe was used to collect blood samples from the right ventricle. Blood samples were used for the establishment of pharmacokinetics profile. Mice were then perfused with 20 mL of phosphate-buffered saline (PBS) and tissues of interest (heart, aorta, bone marrow, spleen, liver, stomach, bladder, kidneys, intestines, lungs, adrenal gland, muscles and pancreas) were harvested. Tissues were blotted for gamma counting on a Wizard2 2480 automatic gamma counter (Perkin Elmer, Waltham, MA). Values were corrected for decay and normalized to tissue weight to express radioactivity concentration as percentage injected dose per gram (%ID/g). […] To investigate the tracer’s distribution within different blood compartments, after gamma counting, 100 μL of blood were spun down at 2000 g for 15 min at 4 °C. Plasma (supernatant) and cells (pellet) were gamma counted and expressed as percentage of total activity. The remainder of the blood was separated using Lymphoprep density gradient medium (Nycomed Pharma, Zurich, Switzerland) following manufacturer’s instructions. Percentage of activity in mononuclear and polynuclear cells was calculated.

[1] = abdominal aorta, female Apoe^-/- mice 12 weeks on Western Diet, N=3-8, read-out: Tissue radioactivity, abdominal aorta
[2] = abdominal aorta, female C57BL/6 mice, N=3-7, read-out: Tissue radioactivity, abdominal aorta
[3] = adrenal gland, female Apoe^-/- mice 12 weeks on Western Diet, N=3-8, read-out: Tissue radioactivity, adrenal gland
[4] = adrenal gland, female C57BL/6 mice, N=3-7, read-out: Tissue radioactivity, adrenal gland
[5] = aortic arch, female Apoe^-/- mice 12 weeks on Western Diet, N=3-8, read-out: Tissue radioactivity, aortic arch
[6] = aortic arch, female C57BL/6 mice, N=3-7, read-out: Tissue radioactivity, aortic arch
[7] = bladder, female Apoe^-/- mice 12 weeks on Western Diet, N=3-8, read-out: Tissue radioactivity, bladder
[8] = bladder, female C57BL/6 mice, N=3-7, read-out: Tissue radioactivity, bladder
[9] = bone marrow, female Apoe^-/- mice 12 weeks on Western Diet, N=3-8, read-out: Tissue radioactivity, bone marrow
[10] = bone marrow, female C57BL/6 mice, N=3-7, read-out: Tissue radioactivity, bone marrow
[11] = fat, female Apoe^-/- mice 12 weeks on Western Diet, N=3-8, read-out: Tissue radioactivity, fat
[12] = fat, female C57BL/6 mice, N=3-7, read-out: Tissue radioactivity, fat
[13] = heart, female Apoe^-/- mice 12 weeks on Western Diet, N=3-8, read-out: Tissue radioactivity, heart
[14] = heart, female C57BL/6 mice, N=3-7, read-out: Tissue radioactivity, heart
[15] = kidneys, female Apoe^-/- mice 12 weeks on Western Diet, N=3-8, read-out: Tissue radioactivity, kidneys
[16] = kidneys, female C57BL/6 mice, N=3-7, read-out: Tissue radioactivity, kidneys
[17] = large intestine, female Apoe^-/- mice 12 weeks on Western Diet, N=3-8, read-out: Tissue radioactivity, large intestine
[18] = large intestine, female C57BL/6 mice, N=3-7, read-out: Tissue radioactivity, large intestine
[19] = liver, female Apoe^-/- mice 12 weeks on Western Diet, N=3-8, read-out: Tissue radioactivity, liver

tissue uptake at 1 min [1]: 3.1 %ID/g
tissue uptake at 5 min [1]: 3.2 %ID/g
tissue uptake at 0.25 h [1]: 2.1 %ID/g
tissue uptake at 0.5 h [1]: 2.5 %ID/g
tissue uptake at 2 h [1]: 2.1 %ID/g
tissue uptake at 1 min [2]: 5.1 %ID/g
tissue uptake at 5 min [2]: 3.8 %ID/g
tissue uptake at 0.25 h [2]: 2.4 %ID/g
tissue uptake at 0.5 h [2]: 1.7 %ID/g
tissue uptake at 1 h [2]: 1.3 %ID/g
tissue uptake at 2 h [2]: 0.7 %ID/g
tissue uptake at 1 min [3]: 1.4 %ID/g
tissue uptake at 5 min [3]: 1.2 %ID/g
tissue uptake at 0.25 h [3]: 1.4 %ID/g
tissue uptake at 0.5 h [3]: 1.5 %ID/g
tissue uptake at 1 h [3]: 1.4 %ID/g
tissue uptake at 2 h [3]: 1.1 %ID/g
tissue uptake at 0.25 h [4]: 1.7 %ID/g
tissue uptake at 0.5 h [4]: 1.6 %ID/g
tissue uptake at 1 h [4]: 1.6 %ID/g
tissue uptake at 2 h [4]: 0.6 %ID/g
tissue uptake at 1 min [5]: 2.9 %ID/g
tissue uptake at 0.25 h [5]: 1.7 %ID/g
tissue uptake at 0.5 h [5]: 1.7 %ID/g
tissue uptake at 1 min [6]: 2.8 %ID/g
tissue uptake at 0.25 h [6]: 1.3 %ID/g
tissue uptake at 0.5 h [6]: 1.1 %ID/g
tissue uptake at 1 h [6]: 1.1 %ID/g
tissue uptake at 2 h [6]: 1.2 %ID/g
tissue uptake at 1 min [7]: 1.7 %ID/g
tissue uptake at 5 min [7]: 98.7 %ID/g
tissue uptake at 0.25 h [7]: 38.9 %ID/g
tissue uptake at 0.5 h [7]: 2.9 %ID/g
tissue uptake at 1 h [7]: 4.7 %ID/g
tissue uptake at 2 h [7]: 2.4 %ID/g
tissue uptake at 1 min [8]: 4.6 %ID/g
tissue uptake at 5 min [8]: 36.4 %ID/g
tissue uptake at 0.25 h [8]: 7.9 %ID/g
tissue uptake at 0.5 h [8]: 6.8 %ID/g
tissue uptake at 2 h [8]: 10.4 %ID/g
tissue uptake at 1 min [9]: 3.1 %ID/g
tissue uptake at 5 min [9]: 2.3 %ID/g
tissue uptake at 0.25 h [9]: 2.6 %ID/g
tissue uptake at 2 h [9]: 2.7 %ID/g
tissue uptake at 5 min [10]: 4.3 %ID/g
tissue uptake at 0.25 h [10]: 3.5 %ID/g
tissue uptake at 1 h [10]: 2.1 %ID/g
tissue uptake at 2 h [10]: 2.5 %ID/g
tissue uptake at 1 min [11]: 0.3 %ID/g
tissue uptake at 5 min [11]: 0.4 %ID/g
tissue uptake at 0.25 h [11]: 0.4 %ID/g
tissue uptake at 0.5 h [11]: 0.3 %ID/g
tissue uptake at 1 h [11]: 0.2 %ID/g
tissue uptake at 2 h [11]: 0.2 %ID/g
tissue uptake at 1 min [12]: 1.1 %ID/g
tissue uptake at 5 min [12]: 1.3 %ID/g
tissue uptake at 0.25 h [12]: 0.8 %ID/g
tissue uptake at 0.5 h [12]: 0.5 %ID/g
tissue uptake at 1 h [12]: 0.3 %ID/g
tissue uptake at 2 h [12]: 0.2 %ID/g
tissue uptake at 1 min [13]: 2.3 %ID/g
tissue uptake at 5 min [13]: 1.4 %ID/g
tissue uptake at 0.25 h [13]: 1.1 %ID/g
tissue uptake at 1 h [13]: 1.3 %ID/g
tissue uptake at 2 h [13]: 1.4 %ID/g
tissue uptake at 1 min [14]: 3.8 %ID/g
tissue uptake at 5 min [14]: 2.1 %ID/g
tissue uptake at 0.25 h [14]: 1.1 %ID/g
tissue uptake at 1 h [14]: 0.8 %ID/g
tissue uptake at 2 h [14]: 0.7 %ID/g
tissue uptake at 1 min [15]: 15.6 %ID/g
tissue uptake at 5 min [15]: 22.9 %ID/g
tissue uptake at 0.25 h [15]: 13.2 %ID/g
tissue uptake at 0.5 h [15]: 8.8 %ID/g
tissue uptake at 1 min [16]: 26.8 %ID/g
tissue uptake at 5 min [16]: 20.5 %ID/g
tissue uptake at 0.25 h [16]: 11.5 %ID/g
tissue uptake at 0.5 h [16]: 8.2 %ID/g
tissue uptake at 1 h [16]: 6.1 %ID/g
tissue uptake at 1 min [17]: 1.3 %ID/g
tissue uptake at 5 min [17]: 1.3 %ID/g
tissue uptake at 0.5 h [17]: 2.8 %ID/g
tissue uptake at 2 h [17]: 3.8 %ID/g
tissue uptake at 1 min [18]: 2.7 %ID/g
tissue uptake at 5 min [18]: 1.6 %ID/g
tissue uptake at 0.5 h [18]: 1.7 %ID/g
tissue uptake at 1 h [18]: 3 %ID/g
tissue uptake at 2 h [18]: 3.1 %ID/g
tissue uptake at 1 min [19]: 4.4 %ID/g
tissue uptake at 5 min [19]: 4.9 %ID/g
tissue uptake at 0.25 h [19]: 8.6 %ID/g
Structure (SMILES): C[C@@H](O)[C@H](NC(=O)[C@@H]1CSSC[C@H](NC(=O)[C@@H](Cc2ccccc2)NC(=O)CN2CCN(CC(=O)O)CCN(CC(=O)O)CCN(CC(=O)O)CC2)C(=O)N[C@@H](Cc2ccc(O)cc2)C(=O)N[C@H](Cc2c[nH]c3ccccc23)C(=O)N[C@@H](CCCCN)C(=O)N[C@@H]([C@@H](C)O)C(=O)N1)C(=O)O [[^64Cu]Cu-DOTATATE, metal not drawn]
